Assay results from patent US12492210B2, “Tricyclic compounds and their use” (HUTCHISON MEDIPHARMA LIMITED, priority 2019, dated 2025).

What was measured:
MAPK1(ERK2) enzyme = biological target: T1, MAPK1(ERK2) enzyme (Homo sapiens, UniProt P28482); experiment: Z-Lyte Kinase Assay of ERK2; assay type: biochemical; conditions: read-out: Example 18 IC50
T1 construct: purchased Invitrogen PV3313
Method in brief: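 FRET-based Z-LYTE assay using ERK2 kinase with Ser/Thr3 peptide; compound tested at 0.00046–1 μM final in 2% DMSO. Kinase reaction ran 1 h at 25-30° C, followed by 1 h development. The coumarin/fluorescein emission ratio (445/520 nm) gave % phosphorylation, and IC50 was fitted from inhibition relative to uninhibited control.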

[1] = tested on: p-RSK (Thr359) in colo205 cells; experiment: p-RSK (Thr359) Acumen Assay in Colo205; assay type: cell-based; conditions: Homo sapiens, COLO 205, 1 hour compound incubation, read-out: Example 19 IC50
Method in brief: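 Colo205 cells (4000/well, seeded overnight in 10% FBS) were exposed 1 hour at 37° C to compound added from a 3–0.001 μM dilution series in 5% DMSO. Cells were then fixed, permeabilised and immunostained for p-RSK Thr359, with PI counterstain. Acumen cytometry gave the percentage of positive cells, normalised to untreated wells and 3 uM GDC0994 wells, for the IC50 fit.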

T1 sequence (P28482 whole entry): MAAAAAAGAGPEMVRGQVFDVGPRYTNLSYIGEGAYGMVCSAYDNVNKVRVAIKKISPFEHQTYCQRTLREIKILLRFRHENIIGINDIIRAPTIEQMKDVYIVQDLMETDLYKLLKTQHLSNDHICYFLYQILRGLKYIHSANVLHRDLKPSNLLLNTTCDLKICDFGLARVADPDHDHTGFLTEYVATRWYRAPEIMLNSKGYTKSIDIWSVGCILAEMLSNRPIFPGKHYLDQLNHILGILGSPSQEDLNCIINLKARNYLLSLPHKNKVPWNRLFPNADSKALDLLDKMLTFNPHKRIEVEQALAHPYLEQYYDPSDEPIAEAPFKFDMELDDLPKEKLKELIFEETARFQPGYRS

C[C@H]1Cn2cc(-c3cc(Nc4ccnn4C)ncc3Cl)cc2-c2nnc(C(F)(F)n3cc(F)cn3)n21 [Compound 108]
IC50 (MAPK1(ERK2) enzyme): ≤ 5 nM | IC50 [1]: ≤ 100 nM

C[C@H]1Cn2cc(-c3cc(Nc4ccnn4C)ncc3F)cc2-c2nnc(C(F)(F)n3cc(Cl)cn3)n21 [Compound 109]
IC50 (MAPK1(ERK2) enzyme): ≤ 5 nM | IC50 [1]: > 100 nM

Cn1nccc1Nc1cc(-c2cc3n(c2)C[C@H](CF)n2c-3nnc2C(F)(F)c2ncco2)c(Cl)cn1 [Compound 110]
IC50 (MAPK1(ERK2) enzyme): ≤ 5 nM | IC50 [1]: > 100 nM

Cn1nccc1Nc1nccc(-c2cc3n(c2)C[C@H](CF)n2c-3nnc2C(F)(F)n2cc(Cl)cn2)n1 [Compound 111]
IC50 (MAPK1(ERK2) enzyme): ≤ 5 nM | IC50 [1]: > 100 nM

Cn1nccc1Nc1cc(-c2cc3n(c2)C[C@H](CF)n2c-3nnc2C(F)(F)c2ccon2)c(Cl)cn1 [Compound 112]
IC50 (MAPK1(ERK2) enzyme): 5 to 10 nM | IC50 [1]: ≤ 100 nM

Cn1nccc1Nc1cc(-c2cc3n(c2)CC(F)(F)Cn2c-3nnc2C(F)(F)C(F)F)c(Cl)cn1 [Compound 113]
IC50 (MAPK1(ERK2) enzyme): 5 to 10 nM | IC50 [1]: > 100 nM

Cn1nccc1Nc1cc(-c2cc3n(c2)C[C@H](CF)n2c-3nnc2C(F)(F)C(F)(F)F)c(Cl)cn1 [Compound 114]
IC50 (MAPK1(ERK2) enzyme): ≤ 5 nM | IC50 [1]: > 100 nM

Cn1nccc1Nc1cc(-c2cc3n(c2)C[C@H](F)Cn2c-3nnc2C(F)(F)C(F)(F)F)c(Cl)cn1 [Compound 115]
IC50 (MAPK1(ERK2) enzyme): 5 to 10 nM | IC50 [1]: > 100 nM

Cn1nccc1Nc1cc(-c2cc3n(c2)C[C@H](CF)n2c-3nnc2C2(C(C)(F)F)CCC2)c(Cl)cn1 [Compound 116]
IC50 (MAPK1(ERK2) enzyme): 5 to 10 nM | IC50 [1]: > 100 nM

Cc1cnc(Nc2ccnn2C)cc1-c1cc2n(c1)CC(F)(F)Cn1c-2nnc1C1(C(F)(F)F)CCC1 [Compound 117]
IC50 (MAPK1(ERK2) enzyme): ≤ 5 nM | IC50 [1]: ≤ 100 nM

Cc1cnc(Nc2ccnn2C)cc1-c1cc2n(c1)C[C@H](C)n1c-2nnc1C(F)(F)c1ccccc1Cl [Compound 118]
IC50 (MAPK1(ERK2) enzyme): > 10 nM | IC50 [1]: ≤ 100 nM

Cn1nccc1Nc1cc(-c2cc3n(c2)CC2(CCC2)Cn2c-3nnc2C(F)(F)C(F)F)c(Cl)cn1 [Compound 119]
IC50 (MAPK1(ERK2) enzyme): 5 to 10 nM | IC50 [1]: > 100 nM

Cn1nccc1Nc1cc(-c2cc3n(c2)CCCn2c-3nnc2C2(C(F)F)CC(F)(F)C2)c(Cl)cn1 [Compound 120]
IC50 (MAPK1(ERK2) enzyme): ≤ 5 nM | IC50 [1]: ≤ 100 nM

Cn1nccc1Nc1cc(-c2cc3n(c2)C[C@H](CF)n2c-3nnc2C2(C(F)(F)F)CCC2)c(Cl)cn1 [Compound 121]
IC50 (MAPK1(ERK2) enzyme): ≤ 5 nM | IC50 [1]: ≤ 100 nM

Cn1nccc1Nc1cc(-c2cc3n(c2)C[C@@H](F)Cn2c-3nnc2C2(C(F)(F)F)CCC2)c(Cl)cn1 [Compound 122]
IC50 (MAPK1(ERK2) enzyme): ≤ 5 nM | IC50 [1]: ≤ 100 nM

Cn1nccc1Nc1cc(-c2cc3n(c2)C[C@H](F)Cn2c-3nnc2C2(C(F)(F)F)CCC2)c(Cl)cn1 [Compound 123]
IC50 (MAPK1(ERK2) enzyme): ≤ 5 nM | IC50 [1]: ≤ 100 nM

Cc1cnc(Nc2ccnn2C)cc1-c1cc2n(c1)C[C@H](CF)n1c-2nnc1C(F)(F)n1ccccc1=O [Compound 124]
IC50 (MAPK1(ERK2) enzyme): ≤ 5 nM | IC50 [1]: ≤ 100 nM

Cc1cnc(Nc2ccnn2C)nc1-c1cc2n(c1)C[C@H](C)n1c-2nnc1C(F)(F)c1ccccc1Cl [Compound 125]
IC50 (MAPK1(ERK2) enzyme): 5 to 10 nM | IC50 [1]: ≤ 100 nM

Cc1cnc(Nc2ccnn2C)cc1-c1cc2n(c1)C[C@H](CF)n1c-2nnc1C(F)(F)c1ccccc1F [Compound 126]
IC50 (MAPK1(ERK2) enzyme): 5 to 10 nM | IC50 [1]: ≤ 100 nM

Cc1cnc(Nc2ccnn2C)cc1-c1cc2n(c1)C[C@H](CF)n1c-2nnc1C(F)(F)c1cccc(F)c1 [Compound 127]
IC50 (MAPK1(ERK2) enzyme): 5 to 10 nM | IC50 [1]: ≤ 100 nM

Cc1cnc(Nc2ccnn2C)cc1-c1cc2n(c1)C[C@H](CF)n1c-2nnc1C(F)(F)c1ccc(F)cc1 [Compound 128]
IC50 (MAPK1(ERK2) enzyme): 5 to 10 nM | IC50 [1]: ≤ 100 nM

Cc1cnc(Nc2ccnn2C)cc1-c1cc2n(c1)CC1(CCC1)Cn1c-2nnc1C1(C(F)(F)F)CCC1 [Compound 129]
IC50 (MAPK1(ERK2) enzyme): ≤ 5 nM | IC50 [1]: ≤ 100 nM

Cc1cnc(Nc2ccnn2C)nc1-c1cc2n(c1)C[C@H](C)n1c-2nnc1C(F)(F)c1c(F)cccc1F [Compound 130]
IC50 (MAPK1(ERK2) enzyme): 5 to 10 nM | IC50 [1]: > 100 nM

Cc1cnc(Nc2ccnn2C)nc1-c1cc2n(c1)C[C@H](CF)n1c-2nnc1C(F)(F)c1ccccc1F [Compound 131]
IC50 (MAPK1(ERK2) enzyme): ≤ 5 nM | IC50 [1]: ≤ 100 nM

Cc1cnc(Nc2ccnn2C)cc1-c1cc2n(c1)C[C@H](CF)n1c-2nnc1C(F)(F)c1ncccc1F [Compound 133]
IC50 (MAPK1(ERK2) enzyme): ≤ 5 nM | IC50 [1]: ≤ 100 nM

Cc1cnc(Nc2ccnn2C)nc1-c1cc2n(c1)C[C@H](C)n1c-2nnc1C(F)(F)c1cc(F)ccc1F [Compound 134]
IC50 (MAPK1(ERK2) enzyme): 5 to 10 nM | IC50 [1]: ≤ 100 nM

C[C@H]1Cn2cc(-c3cc(Nc4ccnn4C)ncc3Cl)cc2-c2nnc(C(F)(F)c3ccccc3F)n21 [Compound 135]
IC50 (MAPK1(ERK2) enzyme): 5 to 10 nM | IC50 [1]: ≤ 100 nM

Cn1nccc1Nc1cc(-c2cc3n(c2)CC2(CC2)Cn2c-3nnc2C2(C(C)(F)F)CCC2)c(Cl)cn1 [Compound 136]
IC50 (MAPK1(ERK2) enzyme): > 10 nM | IC50 [1]: ≤ 100 nM

Cn1nccc1Nc1cc(-c2cc3n(c2)C[C@H](CF)n2c-3nnc2C(F)(F)c2ccccc2)c(Cl)cn1 [Compound 137]
IC50 (MAPK1(ERK2) enzyme): > 10 nM | IC50 [1]: ≤ 100 nM

Cn1nccc1Nc1cc(-c2cc3n(c2)C[C@H](CF)n2c-3nnc2C(F)(F)c2ccccc2Cl)ccn1 [Compound 138]
IC50 (MAPK1(ERK2) enzyme): 5 to 10 nM | IC50 [1]: ≤ 100 nM

Cn1nccc1Nc1cc(-c2cc3n(c2)C[C@H](CF)n2c(Cc4c(F)cccc4F)nnc2-3)c(Cl)cn1 [Compound 139]
IC50 (MAPK1(ERK2) enzyme): ≤ 5 nM | IC50 [1]: ≤ 100 nM

Cn1nccc1Nc1cc(-c2cc3n(c2)CC(F)(F)Cn2c-3nnc2C2(C(F)(F)F)CC2)c(Cl)cn1 [Compound 140]
IC50 (MAPK1(ERK2) enzyme): ≤ 5 nM | IC50 [1]: ≤ 100 nM

Cn1nccc1Nc1cc(-c2cc3n(c2)C[C@H](CF)n2c-3nnc2C(F)(F)c2ccccn2)c(Cl)cn1 [Compound 141]
IC50 (MAPK1(ERK2) enzyme): ≤ 5 nM | IC50 [1]: ≤ 100 nM

Cn1nccc1Nc1nccc(-c2cc3n(c2)C[C@H](CF)n2c-3nnc2C(F)(F)c2ccccc2Cl)n1 [Compound 142]
IC50 (MAPK1(ERK2) enzyme): 5 to 10 nM | IC50 [1]: ≤ 100 nM

C[C@H]1Cn2cc(-c3nc(Nc4ccnn4C)ncc3F)cc2-c2nnc(C(F)(F)c3ccccc3Cl)n21 [Compound 143]
IC50 (MAPK1(ERK2) enzyme): > 10 nM | IC50 [1]: ≤ 100 nM

Cn1nccc1Nc1ncnc(-c2cc3n(c2)C[C@H](CF)n2c-3nnc2C(F)(F)c2ccccc2Cl)n1 [Compound 144]
IC50 (MAPK1(ERK2) enzyme): ≤ 5 nM | IC50 [1]: ≤ 100 nM

Cn1nccc1Nc1cc(-c2cc3n(c2)C[C@H](CF)n2c-3nnc2C(F)(F)c2ccccc2F)c(F)cn1 [Compound 145]
IC50 (MAPK1(ERK2) enzyme): ≤ 5 nM | IC50 [1]: ≤ 100 nM

Cn1nccc1Nc1cc(-c2cc3n(c2)CC(F)(F)Cn2c-3nnc2C(C)(C)C(F)(F)F)c(Cl)cn1 [Compound 146]
IC50 (MAPK1(ERK2) enzyme): ≤ 5 nM | IC50 [1]: ≤ 100 nM

CCc1cnc(Nc2ccnn2C)cc1-c1cc2n(c1)C[C@H](OC)Cn1c-2nnc1C1(C(F)(F)F)CCC1 [Compound 147]
IC50 (MAPK1(ERK2) enzyme): ≤ 5 nM | IC50 [1]: > 100 nM

Cn1nccc1Nc1ncc(F)c(-c2cc3n(c2)C[C@H](CF)n2c-3nnc2C(F)(F)c2ccccc2F)n1 [Compound 148]
IC50 (MAPK1(ERK2) enzyme): 5 to 10 nM | IC50 [1]: ≤ 100 nM

Cn1nccc1Nc1nccc(-c2cc3n(c2)C[C@H](C(F)F)n2c-3nnc2C(F)(F)c2ccccc2F)n1 [Compound 149]
IC50 (MAPK1(ERK2) enzyme): ≤ 5 nM | IC50 [1]: ≤ 100 nM

Cc1cnc(Nc2c3c(nn2C)CCC3)nc1-c1cc2n(c1)C[C@H](CF)n1c(Cc3ccccc3F)nnc1-2 [Compound 150]
IC50 (MAPK1(ERK2) enzyme): ≤ 5 nM | IC50 [1]: ≤ 100 nM

Cc1cnc(Nc2ccnn2C)cc1-c1cc2n(c1)C[C@H](CF)n1c-2nnc1C(F)(F)n1nccc1Cl [Compound 151]
IC50 (MAPK1(ERK2) enzyme): ≤ 5 nM | IC50 [1]: ≤ 100 nM
